Measurements taken from PubChem BioAssay AID2060891 (Molecular Pharmacology Branch, DTP, NCI, 2025).

Test system: K98450-129-R-PDC complex spheroid growth, percent test/control
Experiment: Anticancer human tumor K98450-129-R-PDC patient-derived colon adenocarcinoma cell line growth inhibition [RAS]
Settings: for IC50: curve of first compound; for viability, T/C: stronger effect = lower value; active means viability on the fitted dose curve at most 10% of control; inactive means the rest
Description: RAS pathway inhibitors in Combinations in Complex Spheroids
A high-throughput screen of multi-cell type tumor spheroids was designed to identify active combinations of RAS pathway inhibitors and targeted small molecules. Complex spheroids include a stromal component modeled by human endothelial cells (HUVEC) and fibroblasts modeled by human mesenchymal stem cells (MSCs). The concentration ranges selected for each drug and investigational agent were based upon clinically achievable concentrations if the clinical Cmax of the agent was known.
Compounds. The drugs and investigational agents: abemaciclib (NSC768073), cobimetinib (NSC768068), divarasib (GDC6063, NSC841802), docetaxel (NSC628503), GDC-1971 (RLY-1971, NSC841576), gemcitabine (NSC613327), inavolisib (NSC800729), ipatasertib (NSC767898), KB-0742 (NSC834161), MRTX-1133 (NSC836407), osimertinib (NSC779217), RMC-4630 (NSC839698), RMC-6236 (NSC851965), RMC-6291 (NSC852671), Ro-3306 (NSC812927), sapanisertib (NSC764658), SN-38 (NSC673596), staurosporine (NSC755774), SY5609 (NSC837396), and tovorafenib (DAY101, NSC766906), were obtained from the National Cancer Institute (NCI) Developmental Therapeutics Program Chemical Repository. The FDA-approved anticancer drug set is available from the NCI Developmental Therapeutics Program. […] The stock solutions were prepared in dimethyl sulfoxide (DMSO, Sigma-Aldrich, St. Louis, MO, cat. D2650) at 800-fold the tested concentration and stored at -70 degrees C prior to their use. All drugs and investigational agents were tested over a range starting from a high concentration at or near the clinical Cmax and decreasing in half-log increments. If the clinical Cmax for an agent had not been determined, the highest concentration tested was 10 microM.
Cell Culture. All cells were maintained in an incubator at 37 degrees C and 5% CO2 with 95% humidity. The PDC lines were cultured according to standard operating procedures established by the NCI PDMR. All PDCs were thawed and cultured in Matrigel-coated flasks prepared with a working solution of 1X Ham's F-12 nutrient mix, without supplementation (Invitrogen, Waltham, MA, cat. 11765054), 100 U/mL penicillin-streptomycin (Invitrogen, cat. 15140122), and 2.5% Matrigel (Corning Inc., Corning, NY, cat. 354248) for the first three passages. The 362531-283-R-J2-PDC and 782815-120-R-J1-PDC lines were cultured in 6C/Colon 1B media, which includes advanced DMEM/F-12 (Thermo Fisher Scientific, cat. 12634028), 10 mM HEPES (Thermo Fisher Scientific, cat. 15630080), 1X GlutaMAX supplement (Thermo Fisher Scientific, cat. 35050061), 0.1 mg/mL primocin (InvivoGen, San Diego, CA, cat. ant-pm-2), 10% defined fetal bovine serum, heat inactivated (HyClone Laboratories Inc., Logan, UT, cat. SH30070.03HI), 50% L-WRN conditioned media (ATCC, cat. CRL-3276), 1.25 mM N-Acetyl-L-cysteine (Sigma-Aldrich, cat. A9165), 10 mM nicotinamide (Sigma-Aldrich, cat. N0636), 1X B-27 supplement (Thermo Fisher Scientific, cat. 17504044), 1X N-2 supplement (Thermo Fisher Scientific, cat. 17502048), 50 ng/mL human EGF (Thermo Fisher Scientific, cat. PHG0311), and 10 microM Y-27632 dihydrochloride (Tocris Bioscience, cat. 1254). The K12877-001-R-J1-PDC line was cultured in 6I media, which includes all 6C/Colon 1B media plus 10 ng/mL human FGF-10 (PeproTech, cat. 100-26), 1 ng/mL human FGF-2 (PeproTech, cat. 100-18B), 1 µM prostaglandin E2 (Tocris Bioscience, cat. 2296), […] hydrocortisone (Sigma-Aldrich, cat. H4001), and […] bovine insulin (Sigma-Aldrich, cat. I6634). The K86415-001-R-J1-PDC line was cultured in 6D media, which includes all 6C/Colon 1B media components minus the L-WRN conditioned media. The 485176-168-R4-J1-PDC was cultured in PANC media, which includes all 6C/Colon 1B media plus 100 ng/mL human FGF-10 (PeproTech, cat. 100-26), 500 nM SB-431542 (Selleckchem, cat. S1067), and 10 nM gastrin (Tocris Bioscience, cat. 3006). […]
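Further: spheroids exposed to agents for seven days before the viability readout.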
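Wherever viability, T/C is given: luminescence used as a proxy for viable cell amount.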

CCN1CCN(Cc2ccc(Nc3ncc(F)c(-c4cc(F)c5nc(C)n(C(C)C)c5c4)n3)nc2)CC1 + C#Cc1c(F)ccc2cc(O)cc(-c3ncc4c(N5CC6CCC(C5)N6)nc(OCC56CCCN5CC(F)C6)nc4c3F)c12
inactive: viability, T/C (second compound 0.0316 µM, first compound 0.00316 µM) 110% | viability, T/C (second compound 0.0316 µM, first compound 0.01 µM) 105% | viability, T/C (second compound 0.0316 µM, first compound 0.0316 µM) 99% | viability, T/C (second compound 0.0316 µM, first compound 0.1 µM) 92.4% | viability, T/C (second compound 0.0316 µM, first compound 0.316 µM) 72.2% | viability, T/C (second compound 0.0316 µM, first compound 1 µM) 74.4% | viability, T/C (second compound 0.1 µM, first compound 0.00316 µM) 109% | viability, T/C (second compound 0.1 µM, first compound 0.01 µM) 100% | viability, T/C (second compound 0.1 µM, first compound 0.0316 µM) 98.4% | viability, T/C (second compound 0.1 µM, first compound 0.1 µM) 86.9% | viability, T/C (second compound 0.1 µM, first compound 0.316 µM) 74.1% | viability, T/C (second compound 0.1 µM, first compound 1 µM) 70.5% | viability, T/C (second compound 0.316 µM, first compound 0.00316 µM) 104% | viability, T/C (second compound 0.316 µM, first compound 0.01 µM) 106% | viability, T/C (second compound 0.316 µM, first compound 0.0316 µM) 97.6% | viability, T/C (second compound 0.316 µM, first compound 0.1 µM) 89.6% | viability, T/C (second compound 0.316 µM, first compound 0.316 µM) 74.5% | viability, T/C (second compound 0.316 µM, first compound 1 µM) 67.4% | viability, T/C (second compound 1 µM, first compound 0.00316 µM) 107% | viability, T/C (second compound 1 µM, first compound 0.01 µM) 99.5% | viability, T/C (second compound 1 µM, first compound 0.0316 µM) 90.1% | viability, T/C (second compound 1 µM, first compound 0.1 µM) 82.8% | viability, T/C (second compound 1 µM, first compound 0.316 µM) 66.5% | viability, T/C (second compound 1 µM, first compound 1 µM) 59.2% | viability, T/C (second compound 3.16 µM, first compound 0.00316 µM) 90.4% | viability, T/C (second compound 3.16 µM, first compound 0.01 µM) 94.6% | viability, T/C (second compound 3.16 µM, first compound 0.0316 µM) 95.8% | viability, T/C (second compound 3.16 µM, first compound 0.1 µM) 75.6% | viability, T/C (second compound 3.16 µM, first compound 0.316 µM) 62.8% | viability, T/C (second compound 3.16 µM, first compound 1 µM) 53.6% | viability, T/C (second compound 10 µM, first compound 0.00316 µM) 85.7% | viability, T/C (second compound 10 µM, first compound 0.01 µM) 89.3% | viability, T/C (second compound 10 µM, first compound 0.0316 µM) 81.6% | viability, T/C (second compound 10 µM, first compound 0.1 µM) 69.8% | viability, T/C (second compound 10 µM, first compound 0.316 µM) 46.9% | viability, T/C (second compound 10 µM, first compound 1 µM) 31.9%
270 nM: IC50 (second compound 10 µM)
> 1000 nM: IC50 (second compound 0.0316 µM) | IC50 (second compound 0.1 µM) | IC50 (second compound 0.316 µM) | IC50 (second compound 1 µM) | IC50 (second compound 3.16 µM)
